Measured values as given in ChEMBL document CHEMBL1201862, “PubChem BioAssay data set” (2004).
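Cells were grown in 96-well plates and exposed to each compound for 48 hours at five concentrations; endpoints were interpolated linearly between bracketing concentrations, or set to the highest concentration if not reached. Here, GI50 denotes the concentration required for 50% inhibition of growth.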 The source made the active and inactive calls. Cut-off read from the data, not from the text of the source: active = GI50 up to about 1.1 µM and inactive = higher.

Columns and labels:
Test in all cases: growth of human tumour cells (NCI), 48 h
T47D = system: T47D
KM12 = system: KM12
HCT-15 = system: HCT-15
SK-MEL-2 = system: SK-MEL-2
BT-549 = system: BT-549
MOLT-4 = system: MOLT-4
NCI-H23 = system: NCI-H23
MDA-N = system: MDA-N
MDA-MB-231 = system: MDA-MB-231
NCI-H522 = system: NCI-H522
RXF 393 = system: RXF 393
HCC 2998 = system: HCC 2998
A498 = system: A498
OVCAR-3 = system: OVCAR-3
SW-620 = system: SW-620
HT-29 = system: HT-29
HOP-92 = system: HOP-92
NCI/ADR-RES = system: NCI/ADR-RES
K562 = system: K562
COLO 205 = system: COLO 205

SMILES	GI50 (T47D)	GI50 (KM12)	GI50 (HCT-15) [µM]	GI50 (SK-MEL-2)	GI50 (BT-549)	GI50 (MOLT-4)	GI50 (NCI-H23)	GI50 (MDA-N)	GI50 (MDA-MB-231)	GI50 (NCI-H522)	GI50 (RXF 393)	GI50 (HCC 2998)	GI50 (A498)	GI50 (OVCAR-3)	GI50 (SW-620)	GI50 (HT-29)	GI50 (HOP-92)	GI50 (NCI/ADR-RES)	GI50 (K562)	GI50 (COLO 205)
C=CC(c1ccccc1)C1(O)c2cccc(O)c2C(=O)c2c(O)cccc21 (stereo unspecified)	16.9 µM (inactive)	12.8 µM (inactive)	10.8	12.4 µM (inactive)	16.7 µM (inactive)	11.9 µM (inactive)	13.4 µM (inactive)	5.57 µM (inactive)	18.3 µM (inactive)	11.7 µM (inactive)	14.2 µM (inactive)	10.8 µM (inactive)	19.6 µM (inactive)	18 µM (inactive)	15.1 µM (inactive)	11.5 µM (inactive)	15.9 µM (inactive)	11.5 µM (inactive)	6.64 µM (inactive)	
O=c1[nH]nc(Nc2ccccc2)c2nnn(Cc3ccccc3)c12	> 100 µM (inactive)	> 100 µM (inactive)	> 100	> 100 µM (inactive)	> 100 µM (inactive)	> 100 µM (inactive)	> 100 µM (inactive)	> 100 µM (inactive)	71.3 µM (inactive)	> 100 µM (inactive)	> 100 µM (inactive)	> 100 µM (inactive)	> 100 µM (inactive)		> 100 µM (inactive)	> 100 µM (inactive)	57 µM (inactive)	50.8 µM (inactive)	> 100 µM (inactive)	> 100 µM (inactive)
CCSCC(N)C(=O)O (stereo unspecified)	> 100 µM (inactive)	> 100 µM (inactive)	> 100	> 100 µM (inactive)	> 100 µM (inactive)		> 100 µM (inactive)	> 100 µM (inactive)	> 100 µM (inactive)	> 100 µM (inactive)	> 100 µM (inactive)		> 100 µM (inactive)	> 100 µM (inactive)	> 100 µM (inactive)	> 100 µM (inactive)	0.0337 µM (active)	> 100 µM (inactive)		> 100 µM (inactive)
O=C(O)C1C(C(=O)O)C(C(=O)O)C1C(=O)O (stereo unspecified)	> 100 µM (inactive)	> 100 µM (inactive)	> 100	> 100 µM (inactive)	> 100 µM (inactive)	> 100 µM (inactive)	> 100 µM (inactive)	> 100 µM (inactive)	> 100 µM (inactive)	> 100 µM (inactive)	> 100 µM (inactive)		> 100 µM (inactive)	> 100 µM (inactive)	> 100 µM (inactive)	> 100 µM (inactive)	> 100 µM (inactive)	> 100 µM (inactive)	> 100 µM (inactive)	> 100 µM (inactive)
CCCCCCCCCCCCCCCC(=O)OC(COC(C)=O)CO[PH](=O)O (stereo unspecified)	53.2 µM (inactive)	18.3 µM (inactive)	24	19.5 µM (inactive)	> 100 µM (inactive)	31.3 µM (inactive)		31.3 µM (inactive)	21.7 µM (inactive)	15.1 µM (inactive)	36 µM (inactive)	21.4 µM (inactive)	> 100 µM (inactive)	> 100 µM (inactive)	33.2 µM (inactive)		12 µM (inactive)	23.1 µM (inactive)	> 100 µM (inactive)	96.8 µM (inactive)
CC(C)(C)NC(=O)N1N=C(c2ccccc2)C1c1ccccc1 (stereo unspecified)	42.7 µM (inactive)	47.6 µM (inactive)	23.9		29.9 µM (inactive)		35.9 µM (inactive)	44.6 µM (inactive)	95.9 µM (inactive)	19.6 µM (inactive)	14 µM (inactive)	> 100 µM (inactive)	> 100 µM (inactive)	21.5 µM (inactive)	31.1 µM (inactive)	18 µM (inactive)	22.3 µM (inactive)	35.2 µM (inactive)		35.7 µM (inactive)
Cn1c(=O)cc(NCc2ccc(Cl)cc2)[nH]c1=O	91.2 µM (inactive)	> 100 µM (inactive)	> 100	> 100 µM (inactive)	76.9 µM (inactive)		> 100 µM (inactive)	> 100 µM (inactive)	49.2 µM (inactive)	34.4 µM (inactive)	68.7 µM (inactive)	99.5 µM (inactive)	> 100 µM (inactive)	> 100 µM (inactive)	> 100 µM (inactive)	> 100 µM (inactive)	19.3 µM (inactive)	72.9 µM (inactive)	> 100 µM (inactive)	> 100 µM (inactive)
Cc1ccc(Nc2nc3[nH]ccc3c(=O)[nH]2)cc1	56.1 µM (inactive)	> 100 µM (inactive)	87.5	> 100 µM (inactive)	70.3 µM (inactive)	39.7 µM (inactive)	> 100 µM (inactive)	> 100 µM (inactive)	52.7 µM (inactive)	> 100 µM (inactive)	14.5 µM (inactive)	71.6 µM (inactive)	18.1 µM (inactive)	33 µM (inactive)	> 100 µM (inactive)	61.9 µM (inactive)	> 100 µM (inactive)	> 100 µM (inactive)	> 100 µM (inactive)	> 100 µM (inactive)
CC(C)(C)/C(O)=C\c1nc2ccc(C(F)(F)F)cc2[nH]c1=O	> 100 µM (inactive)	> 100 µM (inactive)	> 100	> 100 µM (inactive)	> 100 µM (inactive)	> 100 µM (inactive)	> 100 µM (inactive)	> 100 µM (inactive)	> 100 µM (inactive)	> 100 µM (inactive)	> 100 µM (inactive)		> 100 µM (inactive)	> 100 µM (inactive)	> 100 µM (inactive)	> 100 µM (inactive)	> 100 µM (inactive)	> 100 µM (inactive)	> 100 µM (inactive)	> 100 µM (inactive)
CN(C)CCNC(=O)C(C)(C)Oc1ccc(C(=O)c2ccc(Cl)cc2)cc1Cl	10.4 µM (inactive)	8.93 µM (inactive)	3.3	18 µM (inactive)	11.5 µM (inactive)	12 µM (inactive)	9.86 µM (inactive)	4.45 µM (inactive)	10.9 µM (inactive)	15 µM (inactive)	7.52 µM (inactive)	5.21 µM (inactive)	16.1 µM (inactive)	12.6 µM (inactive)	5.26 µM (inactive)	2.56 µM (inactive)	6 µM (inactive)	12.5 µM (inactive)		1.82 µM (inactive)
CN/C(N)=N/N=C1/C(=O)Nc2ccccc21	> 100 µM (inactive)	> 100 µM (inactive)	> 100	> 100 µM (inactive)	> 100 µM (inactive)	> 100 µM (inactive)	> 100 µM (inactive)	> 100 µM (inactive)	> 100 µM (inactive)	> 100 µM (inactive)	> 100 µM (inactive)	> 100 µM (inactive)	> 100 µM (inactive)		> 100 µM (inactive)	> 100 µM (inactive)	> 100 µM (inactive)	> 100 µM (inactive)	> 100 µM (inactive)	> 100 µM (inactive)
COC(OC)C1OCC(n2cc(F)c(=O)[nH]c2=O)C1O (stereo unspecified)	> 100 µM (inactive)	> 100 µM (inactive)	> 100	> 100 µM (inactive)	> 100 µM (inactive)	> 100 µM (inactive)	> 100 µM (inactive)	> 100 µM (inactive)	> 100 µM (inactive)	> 100 µM (inactive)	42.9 µM (inactive)	> 100 µM (inactive)	> 100 µM (inactive)	> 100 µM (inactive)	> 100 µM (inactive)	> 100 µM (inactive)	> 100 µM (inactive)	> 100 µM (inactive)	> 100 µM (inactive)	> 100 µM (inactive)
C[Si](C)(OCCS(=O)(=O)O)C1(Cc2cccc3ccccc23)S(=O)(=O)OCCOS1(=O)=O	17.1 µM (inactive)	14.4 µM (inactive)	19.6	18.9 µM (inactive)	18.5 µM (inactive)	34.9 µM (inactive)	27.8 µM (inactive)	17.8 µM (inactive)	18.1 µM (inactive)	13.7 µM (inactive)		16.5 µM (inactive)	15.9 µM (inactive)	12.6 µM (inactive)	16.3 µM (inactive)		11.2 µM (inactive)	33.7 µM (inactive)	26.4 µM (inactive)	12.3 µM (inactive)
OC[C@H]1NC[C@@H](O)[C@@H](O)[C@H]1O	> 100 µM (inactive)	> 100 µM (inactive)	> 100	> 100 µM (inactive)	> 100 µM (inactive)	> 100 µM (inactive)	> 100 µM (inactive)	> 100 µM (inactive)	> 100 µM (inactive)		> 100 µM (inactive)	> 100 µM (inactive)	> 100 µM (inactive)	> 100 µM (inactive)	> 100 µM (inactive)	> 100 µM (inactive)	> 100 µM (inactive)	> 100 µM (inactive)	> 100 µM (inactive)	> 100 µM (inactive)
OC(c1ccc(Cl)cc1)(c1ccc(Cl)cc1)c1cncnc1	28.2 µM (inactive)	17.6 µM (inactive)	19	16.6 µM (inactive)	19.2 µM (inactive)	14.8 µM (inactive)	26.3 µM (inactive)	19.2 µM (inactive)	18.6 µM (inactive)		13.4 µM (inactive)	> 10 µM (inactive)	21.2 µM (inactive)	17.1 µM (inactive)	21.1 µM (inactive)	16.6 µM (inactive)	17.4 µM (inactive)	26.4 µM (inactive)	4.5 µM (inactive)	19 µM (inactive)
